Laboratory results published in article PMC8413292, “Small-molecule polymerase inhibitor protects non-human primates from measles and reduces shedding” (Nature Communications, 2021).
Several values for one entry are separate records, joined by “and”; a condition that tells them apart may be missing. Equal values may be shown once.

How the values were obtained:
[1] = tested on: MV/FrankfurtMain.DEU/17.11 (genotype D8); assay: Throat swab virus titers (shed virus, limited dilution); format: in vivo, squirrel monkeys (Saimiri sciureus)
Procedure: (§1) White blood cell counts, viral load quantification in PBMCs, and quantification of neutralizing antibody titers were performed as follows: for white blood cell counts, blood was diluted 1:100 in 3% acetic acid and cells were counted using a Neubauer chamber. For viral load quantification in PBMCs, blood was centrifuged at 3000 rpm for 15 min and serum was frozen at −20 °C until further use. Red blood cell lysis was performed and the remaining PBMCs were counted using a Neubauer chamber. Viral titers in PBMCs were quantified in quadruplicates using limited dilution method and calculated as TCID50/10^6 PBMCs. Neutralizing antibody titers were quantified by incubating MeV with 2-fold serial dilutions of the respective serum for 20 min at room temperature in quadruplicates. Vero/hSLAM cells were added and incubated for 3 days at 37 °C. Neutralizing antibody titers are expressed as the reciprocal of the highest serum dilution showing no signs of infection. For virus titration from throat swabs, swabs were placed in 150 μl DMEM with 3% penicillin/streptomycin and the titer was quantified by limited dilution method.

[2] = tested on: MV/FrankfurtMain.DEU/17.11 (genotype D8); assay: Neutralizing antibody titers in serum; format: in vivo, squirrel monkeys (Saimiri sciureus); conditions: lower limit of detection = 10
Procedure: as §1

Cn1nc(C(F)(F)F)cc1C(=O)Nc1ccc(S(=O)(=O)N2CCCC[C@H]2CCN2CCOCC2)cc1 [ERDRP-0519]
Swab Titration, group mean (Mean 2) ([1]; prophylactic, Row 1 (0 d)): 0 log10(TCID50/ml) | Swab Titration, group mean (Mean 2) ([1]; prophylactic, Row 2 (3 d)): 0 log10(TCID50/ml) | Swab Titration, group mean (Mean 2) ([1]; prophylactic, Row 3 (7 d)): 0 log10(TCID50/ml) | Swab Titration, group mean (Mean 2) ([1]; prophylactic, Row 4 (10 d)): 0.4498 log10(TCID50/ml) | Swab Titration, group mean (Mean 2) ([1]; prophylactic, Row 5 (14 d)): 0 log10(TCID50/ml) | Swab Titration, group mean (Mean 2) ([1]; prophylactic, Row 6 (17 d)): 0.1165 log10(TCID50/ml) | Viral titers (throat swab), individual animals ([1]; prophylactic, time 10 d): 2.699 log10(TCID50/ml) | Viral titers (throat swab), individual animals ([1]; prophylactic, time 17 d): 0.699 log10(TCID50/ml) | Swab Titration, group mean (Mean 2) ([1]; therapeutic (d3), Row 1 (0 d)): 0 log10(TCID50/ml) | Swab Titration, group mean (Mean 2) ([1]; therapeutic (d3), Row 2 (3 d)): 0 log10(TCID50/ml) | Swab Titration, group mean (Mean 2) ([1]; therapeutic (d3), Row 3 (7 d)): 0.7332 log10(TCID50/ml) | Swab Titration, group mean (Mean 2) ([1]; therapeutic (d3), Row 4 (10 d)): 1.153 log10(TCID50/ml) | Swab Titration, group mean (Mean 2) ([1]; therapeutic (d3), Row 5 (14 d)): 0 log10(TCID50/ml) | Swab Titration, group mean (Mean 2) ([1]; therapeutic (d3), Row 6 (17 d)): 0 log10(TCID50/ml) | Viral titers (throat swab), individual animals ([1]; therapeutic (d3), time 7 d): 0.699 log10(TCID50/ml) and 2 log10(TCID50/ml) and 1.699 log10(TCID50/ml) | Viral titers (throat swab), individual animals ([1]; therapeutic (d3), time 10 d): 1.477 log10(TCID50/ml) (3×) and 2.477 log10(TCID50/ml) | Swab Titration, group mean (Mean 2) ([1]; therapeutic (d7), Row 1 (0 d)): 0 log10(TCID50/ml) | Swab Titration, group mean (Mean 2) ([1]; therapeutic (d7), Row 2 (3 d)): 0 log10(TCID50/ml) | Swab Titration, group mean (Mean 2) ([1]; therapeutic (d7), Row 3 (7 d)): 2.207 log10(TCID50/ml) | Swab Titration, group mean (Mean 2) ([1]; therapeutic (d7), Row 4 (10 d)): 0.9798 log10(TCID50/ml) | Swab Titration, group mean (Mean 2) ([1]; therapeutic (d7), Row 5 (14 d)): 0 log10(TCID50/ml) | Swab Titration, group mean (Mean 2) ([1]; therapeutic (d7), Row 6 (17 d)): 0 log10(TCID50/ml) | Viral titers (throat swab), individual animals ([1]; therapeutic (d7), time 7 d): 3.477 log10(TCID50/ml) and 2.699 log10(TCID50/ml) (2×) and 2.176 log10(TCID50/ml) (2×) | Viral titers (throat swab), individual animals ([1]; therapeutic (d7), time 10 d): 1.699 log10(TCID50/ml) and 1.477 log10(TCID50/ml) and 2.699 log10(TCID50/ml) | Swab Titration, Mean Diff, untreated vs. treated ([1]; untreated vs. prophylactic, Row 1 (0 d)): 0 log10(TCID50/ml) | Swab Titration, Mean Diff, untreated vs. treated ([1]; untreated vs. prophylactic, Row 2 (3 d)): 0 log10(TCID50/ml) | Swab Titration, Mean Diff, untreated vs. treated ([1]; untreated vs. prophylactic, Row 3 (7 d)): 1.98 log10(TCID50/ml) | Swab Titration, Mean Diff, untreated vs. treated ([1]; untreated vs. prophylactic, Row 4 (10 d)): 2.423 log10(TCID50/ml) | Swab Titration, Mean Diff, untreated vs. treated ([1]; untreated vs. prophylactic, Row 5 (14 d)): 0 log10(TCID50/ml) | Swab Titration, Mean Diff, untreated vs. treated ([1]; untreated vs. prophylactic, Row 6 (17 d)): 0.1302 log10(TCID50/ml) | Swab Titration, Mean Diff, untreated vs. treated ([1]; untreated vs. therapeutic (d3), Row 1 (0 d)): 0 log10(TCID50/ml) | Swab Titration, Mean Diff, untreated vs. treated ([1]; untreated vs. therapeutic (d3), Row 2 (3 d)): 0 log10(TCID50/ml) | Swab Titration, Mean Diff, untreated vs. treated ([1]; untreated vs. therapeutic (d3), Row 3 (7 d)): 1.247 log10(TCID50/ml) | Swab Titration, Mean Diff, untreated vs. treated ([1]; untreated vs. therapeutic (d3), Row 4 (10 d)): 1.72 log10(TCID50/ml) | Swab Titration, Mean Diff, untreated vs. treated ([1]; untreated vs. therapeutic (d3), Row 5 (14 d)): 0 log10(TCID50/ml) | Swab Titration, Mean Diff, untreated vs. treated ([1]; untreated vs. therapeutic (d3), Row 6 (17 d)): 0.2467 log10(TCID50/ml) | Swab Titration, Mean Diff, untreated vs. treated ([1]; untreated vs. therapeutic (d7), Row 1 (0 d)): 0 log10(TCID50/ml) | Swab Titration, Mean Diff, untreated vs. treated ([1]; untreated vs. therapeutic (d7), Row 2 (3 d)): 0 log10(TCID50/ml) | Swab Titration, Mean Diff, untreated vs. treated ([1]; untreated vs. therapeutic (d7), Row 3 (7 d)): -0.2268 log10(TCID50/ml) | Swab Titration, Mean Diff, untreated vs. treated ([1]; untreated vs. therapeutic (d7), Row 4 (10 d)): 1.893 log10(TCID50/ml) | Swab Titration, Mean Diff, untreated vs. treated ([1]; untreated vs. therapeutic (d7), Row 5 (14 d)): 0 log10(TCID50/ml) | Swab Titration, Mean Diff, untreated vs. treated ([1]; untreated vs. therapeutic (d7), Row 6 (17 d)): 0.2467 log10(TCID50/ml) | neutralizing antibody titer, dilution factor [1/dilution] ([2]; prophylactic group, day 0, individual animals): 10 1/dilution | neutralizing antibody titer, dilution factor [1/dilution] ([2]; prophylactic group, day 3, individual animals): 10 1/dilution | neutralizing antibody titer, dilution factor [1/dilution] ([2]; prophylactic group, day 7, individual animals): 10 1/dilution | neutralizing antibody titer, dilution factor [1/dilution] ([2]; prophylactic group, day 10, individual animals): 10 1/dilution | neutralizing antibody titer, dilution factor [1/dilution] ([2]; prophylactic group, day 14, individual animals): 10 1/dilution (3×) and 80 1/dilution and 15 1/dilution and 30 1/dilution | neutralizing antibody titer, dilution factor [1/dilution] ([2]; prophylactic group, day 17, individual animals): 160 1/dilution and 240 1/dilution and 10 1/dilution (3×) and 17.5 1/dilution | neutralizing antibody titer, dilution factor [1/dilution] ([2]; prophylactic group, day 21, individual animals): 640 1/dilution and 200 1/dilution and 120 1/dilution and 10 1/dilution (2×) and 35 1/dilution | neutralizing antibody titer, dilution factor [1/dilution] ([2]; therapeutic (d3) group, day 0, individual animals): 10 1/dilution | neutralizing antibody titer, dilution factor [1/dilution] ([2]; therapeutic (d3) group, day 3, individual animals): 10 1/dilution | neutralizing antibody titer, dilution factor [1/dilution] ([2]; therapeutic (d3) group, day 7, individual animals): 10 1/dilution | neutralizing antibody titer, dilution factor [1/dilution] ([2]; therapeutic (d3) group, day 10, individual animals): 25 1/dilution and 10 1/dilution (2×) and 12.5 1/dilution | neutralizing antibody titer, dilution factor [1/dilution] ([2]; therapeutic (d3) group, day 14, individual animals): 800 1/dilution and 35 1/dilution and 10 1/dilution and 280 1/dilution and 400 1/dilution and 70 1/dilution | neutralizing antibody titer, dilution factor [1/dilution] ([2]; therapeutic (d3) group, day 17, individual animals): 200 1/dilution (2×) and 30 1/dilution and 240 1/dilution and 80 1/dilution | neutralizing antibody titer, dilution factor [1/dilution] ([2]; therapeutic (d3) group, day 21, individual animals): 320 1/dilution (2×) and 70 1/dilution and 140 1/dilution and 120 1/dilution | neutralizing antibody titer, dilution factor [1/dilution] ([2]; therapeutic (d7) group, day 0, individual animals): 10 1/dilution | neutralizing antibody titer, dilution factor [1/dilution] ([2]; therapeutic (d7) group, day 3, individual animals): 10 1/dilution (5×) and 12.5 1/dilution | neutralizing antibody titer, dilution factor [1/dilution] ([2]; therapeutic (d7) group, day 7, individual animals): 10 1/dilution (5×) and 15 1/dilution | neutralizing antibody titer, dilution factor [1/dilution] ([2]; therapeutic (d7) group, day 10, individual animals): 20 1/dilution and 12.5 1/dilution
